The target of experiment [1] is Methionine aminopeptidase 2 (Homo sapiens, UniProt P50579). Nature of the experiment: biochemical.
Description: Inhibition of human recombinant GST-6XHis-tagged full-length cytosolic METAP2 expressed in cabbage looper BTI-TN-5B1-4 cells using Met-Pro-p-nitroanilide as substrate after 20 mins by spectrophotometric analysis in presence of Bacillus coagulans GST-tagged proline iminopeptidase
A further experiment is filed under the species Homo sapiens. Nature of the experiment: Selectivity ratio of EC50 for human recombinant GST-6XHis-tagged full-length cytosolic METAP2 to EC50 for human recombinant full-length cytosolic METAP1.
In experiment [2] the target is Methionine aminopeptidase 1 (Homo sapiens, UniProt P53582).
Description: Inhibition of human recombinant full-length cytosolic METAP1 expressed in Escherichia coli BL21(DE3) using Met-Pro-p-nitroanilide as substrate after 20 mins by spectrophotometric analysis in presence of Bacillus coagulans GST-tagged proline iminopeptidase
In experiment [3] the target is T1, Proline iminopeptidase (Bacillus coagulans) (UniProt P46541).
T1 sequence (whole entry): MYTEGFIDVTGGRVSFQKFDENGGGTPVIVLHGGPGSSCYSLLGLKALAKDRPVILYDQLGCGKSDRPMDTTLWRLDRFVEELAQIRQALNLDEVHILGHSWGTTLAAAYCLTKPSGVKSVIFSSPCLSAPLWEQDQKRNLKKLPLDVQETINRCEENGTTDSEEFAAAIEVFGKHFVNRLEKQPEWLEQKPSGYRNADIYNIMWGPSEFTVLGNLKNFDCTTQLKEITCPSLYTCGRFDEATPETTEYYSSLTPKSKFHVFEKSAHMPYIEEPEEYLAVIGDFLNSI
Nature of the experiment: Inhibition of Bacillus coagulans GST-tagged proline iminopeptidase using Pro-p-nitroanilide as substrate at 100 uM relative to control. Particulars: Heyndrickxia coagulans.

Experiment [4] addresses T1, Proline iminopeptidase (Bacillus coagulans). The experiment is described as follows: Inhibition of Bacillus coagulans GST-tagged proline iminopeptidase using Pro-p-nitroanilide as substrate at 10 uM relative to control. Particulars: Heyndrickxia coagulans.

Each structure is given as a SMILES string.

Chain of Methionine aminopeptidase 2 (P50579 whole entry): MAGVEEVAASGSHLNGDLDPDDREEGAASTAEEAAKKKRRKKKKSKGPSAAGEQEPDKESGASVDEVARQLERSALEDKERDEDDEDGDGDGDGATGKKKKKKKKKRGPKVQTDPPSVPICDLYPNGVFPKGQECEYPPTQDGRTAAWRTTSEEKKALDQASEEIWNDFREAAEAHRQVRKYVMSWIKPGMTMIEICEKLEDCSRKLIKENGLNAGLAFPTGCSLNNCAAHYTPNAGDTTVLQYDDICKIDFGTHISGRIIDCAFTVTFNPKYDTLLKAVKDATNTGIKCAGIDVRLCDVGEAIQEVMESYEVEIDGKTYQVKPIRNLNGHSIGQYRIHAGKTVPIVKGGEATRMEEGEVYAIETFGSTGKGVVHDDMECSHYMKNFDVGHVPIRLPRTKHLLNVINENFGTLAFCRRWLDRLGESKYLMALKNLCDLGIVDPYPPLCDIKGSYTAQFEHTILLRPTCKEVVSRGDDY

One may read the IC50 as the point on the concentration scale where inhibition reaches its midpoint. A higher IC50 goes with weaker potency in that assay. On to `Cc1nc(-c2ccc(Cl)cn2)nc(NC[C@H](NCCCCc2ccccc2)c2ccccc2)c1Cl`, for which the IC50 in experiment [1] was > 100000 nM.
As for `Cc1nc(-c2ccc(N(C)C)cn2)nc(NC[C@H](NC(=O)CCCN2CCNCC2)c2ccccc2)c1Cl`, the Ratio EC50 in the experiment filed under Homo sapiens turned out to be 12. Besides, the half-inhibitory concentration (IC50) in experiment [1] was determined as 1700 nM; in experiment [2], 140 nM.
For the compound `Cc1nc(-c2ccc(Cl)cn2)nc(NCC(CCCCc2ccccc2)c2ccccc2)c1Cl` (configuration not stated), the Ratio EC50 in the experiment listed under Homo sapiens is > 1000. Further, the IC50 is > 200000 nM in experiment [1] and 200 nM in experiment [2].
The matching figures for `Cc1nc(-c2ccc(Cl)cn2)nc(NCC(CCCCCc2ccccc2)c2ccccc2)c1Cl` (racemic): > 87, > 200000 nM and 2300 nM.
Consider `Cc1nc(-c2ccc(Cl)cn2)nc(NC[C@H](NCCCc2ccccc2)c2ccccc2)c1Cl`, for which the Ratio EC50 in the experiment listed under Homo sapiens is > 1150. Also, the values for the 50% inhibitory concentration (IC50) in experiment [1] and in experiment [2] were > 300000 nM and 260 nM, respectively.
Turning to `Cc1nc(-c2ccc(Cl)cn2)nc(NC[C@H](NC(=O)CCCCc2ccccc2)c2ccccc2)c1Cl`, the Ratio EC50 in the experiment filed under Homo sapiens was > 23. Moreover, the IC50 in experiment [1] was > 30000 nM; in experiment [2], 1300 nM.
The matching figures for `Cc1nc(-c2ccc(Cl)cn2)nc(NC[C@H](NC(=O)CCCc2ccccc2)c2ccccc2)c1Cl`: > 188, > 30000 nM and 160 nM.
Regarding `Cc1nc(-c2ccccn2)nc(NC[C@H](NC(=O)CCN2CCN(CCO)CC2)c2ccccc2)c1Cl`, half-maximal inhibition in experiment [1] (IC50) was put at 114000 nM.
In the case of `Cc1nc(-c2ccccn2)nc(NCCNc2cccc(C(F)(F)F)n2)c1Cl`, in experiment [1], the IC50 is > 100000 nM.
Take `CCCOc1ccc(CCCCN[C@@H](CNc2nc(-c3ccc(Cl)cn3)nc(C)c2Cl)c2ccccc2)cc1`: in the experiment filed under Homo sapiens, the Ratio EC50 is > 250. Besides, the IC50 in experiment [1] was > 300000 nM; in experiment [2] it was 1200 nM.
Regarding `Cc1nc(-c2ccccn2)nc(NC[C@H](NC(=O)CCCN2CCNCC2)c2ccccc2)c1Cl`, the IC50 in experiment [1] was > 300000 nM.
On to `Cc1nc(-c2ccc(Cl)cn2)nc(NC[C@H](NCCCCCCc2ccccc2)c2ccccc2)c1Cl`, for which the Ratio EC50 in the experiment filed under Homo sapiens was > 42. The results for the IC50 in experiment [1] and in experiment [2] were > 30000 nM and 710 nM, respectively.
As for `COc1cccc(-c2nc(C)c(Cl)c(NC[C@H](NC(=O)CCCN3CCNCC3)c3ccccc3)n2)n1`, the Ratio EC50 in the experiment filed under Homo sapiens is > 1.5. The results for the half-maximal inhibitory concentration (IC50) in experiment [1] and in experiment [2] were > 30000 nM and 20000 nM, respectively.
The matching figures for `Cc1nc(-c2cc(Cl)ccn2)nc(NC[C@H](NC(=O)CCCN2CCNCC2)c2ccccc2)c1Cl`: > 411, > 300000 nM and 730 nM.
As for `Cc1nc(-c2ccc(Cl)cn2)nc(NC[C@H](NCCCCc2ccc(Cl)cc2)c2ccccc2)c1Cl`, in the experiment filed under Homo sapiens, the Ratio EC50 is > 526. For the same compound, the results for the IC50 in experiment [1] and in experiment [2] were > 300000 nM and 570 nM, respectively.
The corresponding values for `COc1cccnc1-c1nc(C)c(Cl)c(NC[C@H](NC(=O)CCCN2CCNCC2)c2ccccc2)n1` are > 120, > 300000 nM and 2500 nM.
The corresponding values for `Cc1nc(-c2ncccc2Cl)nc(NC[C@H](NC(=O)CCCN2CCNCC2)c2ccccc2)c1Cl` are > 39, > 300000 nM and 7600 nM.
For `Cc1nc(-c2ccccn2)nc(NC[C@H](NC(=O)CCCN2CCN(CCO)CC2)c2ccccc2)c1Cl`, in experiment [1], the IC50 was > 300000 nM.
Take `Cc1nc(-c2ccc(Cl)cn2)nc(NC[C@H](NC(=O)CCCCCc2ccccc2)c2ccccc2)c1Cl`: the Ratio EC50 in the experiment listed under Homo sapiens was > 45. Besides, the figures for the half-inhibitory concentration (IC50) in experiment [1] and in experiment [2] were > 30000 nM and 670 nM, respectively.
In the case of `Cc1nc(-c2ccc(Br)cn2)nc(NC[C@H](NC(=O)CCCN2CCNCC2)c2ccccc2)c1Cl`, the Ratio EC50 in the experiment listed under Homo sapiens was 161. The IC50 in experiment [1] stood at 53000 nM; in experiment [2], 330 nM.
The corresponding values for `Cc1nc(-c2ccc(Cl)cn2)nc(NC[C@H](NCCCCc2ccc3ccccc3n2)c2ccccc2)c1Cl` are > 435, > 300000 nM and 690 nM.
Regarding `Cc1nc(-c2ccccn2)nc(NC[C@H](NCCCCN2CCN(CCO)CC2)c2ccccc2)c1Cl`, half-maximal inhibition in experiment [1] (IC50) required 197000 nM.
For the compound `Cc1nc(-c2ccc(Cl)cn2)nc(NC[C@H](NCCCCn2cccc2)c2ccccc2)c1Cl`, the Ratio EC50 in the experiment filed under Homo sapiens was > 200. For the same compound, the figures for the IC50 in experiment [1] and in experiment [2] were > 100000 nM and 500 nM, respectively.
As to `Cc1nc(-c2ccccn2)nc(NC2CCN(c3ncc(C(F)(F)F)cc3Cl)CC2)c1Cl`, the IC50 in experiment [1] was > 100000 nM.
As for `Cc1nc(-c2cccnc2)nc(NCc2ccccc2)c1Cl`, the IC50 in experiment [1] and in experiment [2] was > 100000 nM each time.
Regarding `Cc1nc(-c2ccc(Cl)cn2)nc(NC[C@H](NCc2ccccc2)c2ccccc2)c1Cl`, in the experiment listed under Homo sapiens, the Ratio EC50 was determined as 141. Moreover, the results for the IC50 in experiment [1] and in experiment [2] were 31000 nM and 220 nM, respectively.
The matching figures for `Cc1nc(-c2ccc(N3CCCC3)cn2)nc(NC[C@H](NC(=O)CCCN2CCNCC2)c2ccccc2)c1Cl`: 1.1, 1100 nM and 1700 nM.
As for `Cc1nc(-c2ccccn2)nc(SCc2ccccc2)c1Cl`, the 50% inhibitory concentration (IC50) in experiment [1] is > 100000 nM.
Broadly, the inhibition is the relative decrease from the control value, in per cent. Take `Cc1nc(-c2ccc(Cl)cn2)nc(NC[C@H](NCCCCc2ccc(C#N)cc2)c2ccccc2)c1Cl`: the inhibition was determined as 97% in experiment [3] and 27% in experiment [4]. Also, in the experiment listed under Homo sapiens, the Ratio EC50 is 31. In addition, the IC50 came out at 16000 nM in experiment [1] and 520 nM in experiment [2].
With `Cc1nc(-c2ccc([N+](=O)[O-])cn2)nc(NC[C@H](NC(=O)CCCN2CCNCC2)c2ccccc2)c1Cl`, the Ratio EC50 in the experiment listed under Homo sapiens was 47. The IC50 in experiment [1] stood at 14000 nM; in experiment [2], 300 nM.
For `Cc1nc(-c2ccccn2)nc(N2CCN(CCO)CC2)c1Cl`, in experiment [1], the IC50 was > 100000 nM.
As to `Cc1nc(-c2ccccn2)nc(NCCNc2ccc(C(F)(F)F)cn2)c1Cl`, in experiment [1], the IC50 was > 100000 nM.
For the compound `Cc1nc(-c2cccc(Cl)n2)nc(NC[C@H](NC(=O)CCCN2CCNCC2)c2ccccc2)c1Cl`, in the experiment filed under Homo sapiens, the Ratio EC50 was > 4.2. In addition, the IC50 in experiment [1] is > 30000 nM; in experiment [2], 7200 nM.
With `Cc1nc(-c2ccc(Cl)cn2)nc(NC[C@H](NCCCCc2cccs2)c2ccccc2)c1Cl`, the Ratio EC50 in the experiment listed under Homo sapiens was > 789. In addition, the IC50 in experiment [1] was > 300000 nM; in experiment [2], 380 nM.
With `Cc1nc(-c2ccc(Cl)cn2)nc(NC[C@H](NC(=O)CCc2ccccc2)c2ccccc2)c1Cl`, the Ratio EC50 in the experiment filed under Homo sapiens was > 323. The values for the IC50 in experiment [1] and in experiment [2] were > 30000 nM and 93 nM, respectively.
With `Cc1nc(-c2ccc(Cl)cn2)nc(NC[C@H](NCCCCc2ccc(O)cc2)c2ccccc2)c1Cl`, the Ratio EC50 in the experiment filed under Homo sapiens is > 714. Further, the IC50 in experiment [1] is > 300000 nM; in experiment [2], 420 nM.
As for `Cc1nc(-c2ccc(Cl)cn2)nc(NC[C@H](NC(=O)CCCN2CCNCC2)c2ccccc2)c1Cl`, the Ratio EC50 in the experiment listed under Homo sapiens was determined as 33. Also, the half-inhibitory concentration (IC50) in experiment [1] was 1200 nM; in experiment [2], 36 nM.
The corresponding values for `Cc1nc(-c2ccc(Cl)cn2)nc(NC[C@H](NC(=O)Cc2ccccc2)c2ccccc2)c1Cl` are 40, 28000 nM and 700 nM.
In the case of `Cc1nc(-c2ccc(Cl)cn2)nc(NCC(CCc2ccccc2)c2ccccc2)c1Cl` (configuration not stated), the Ratio EC50 in the experiment filed under Homo sapiens was > 3180. Also, the IC50 in experiment [1] was > 200000 nM; in experiment [2], 63 nM.
The corresponding values for `COc1ccnc(-c2nc(C)c(Cl)c(NC[C@H](NC(=O)CCCN3CCNCC3)c3ccccc3)n2)c1` are 26, 14000 nM and 530 nM.
The matching figures for `Cc1nc(-c2ccc(Cl)cn2)nc(NC[C@H](NCCCCc2ccco2)c2ccccc2)c1Cl`: > 909, > 300000 nM and 330 nM.
Turning to `Cc1nc(-c2ccccn2)nc(NC[C@H](NCCCN2CCN(CCO)CC2)c2ccccc2)c1Cl`, it took 101000 nM to reach half-maximal inhibition in experiment [1] (IC50).
`Cc1nc(-c2ccc(Cl)cn2)nc(NC[C@H](NCCc2ccccc2)c2ccccc2)c1Cl`: the Ratio EC50 in the experiment filed under Homo sapiens was > 384. The IC50 in experiment [1] is > 100000 nM; in experiment [2] it was 260 nM.
Regarding `COc1ccc(-c2nc(C)c(Cl)c(NC[C@H](NC(=O)CCCN3CCNCC3)c3ccccc3)n2)nc1`, the Ratio EC50 in the experiment listed under Homo sapiens is > 1110. The figures for the IC50 in experiment [1] and in experiment [2] were > 300000 nM and 270 nM, respectively.
With `Cc1nc(-c2ccccn2)nc(NCCc2ccccc2)c1C`, the concentration for half-maximal inhibition (IC50) in experiment [1] and in experiment [2] was > 100000 nM in each case.
`Cc1nc(-c2ccc(F)cn2)nc(NC[C@H](NC(=O)CCCN2CCNCC2)c2ccccc2)c1Cl`: in the experiment listed under Homo sapiens, the Ratio EC50 was found to be 24. In addition, the values for the IC50 in experiment [1] and in experiment [2] were 1200 nM and 49 nM, respectively.
As for `Cc1nc(-c2ccccn2)nc(SCCc2ccccc2)c1Cl`, the IC50 in experiment [1] was > 100000 nM.
As to `Cc1nc(-c2ccc(Cl)cn2)nc(NCC(CCCc2ccccc2)c2ccccc2)c1Cl` (configuration not stated), in the experiment filed under Homo sapiens, the Ratio EC50 is > 1250. In addition, the values for the IC50 in experiment [1] and in experiment [2] were > 200000 nM and 160 nM, respectively.
Take `Cc1cc(NCCc2ccccc2)nc(-c2ccccn2)n1`: the IC50 in experiment [1] and in experiment [2] was > 100000 nM each time.
As to `Cc1nc(-c2ccc(Cl)cn2)nc(NC[C@H](NCCCCCc2ccccc2)c2ccccc2)c1Cl`, in the experiment listed under Homo sapiens, the Ratio EC50 was > 138. Also, the IC50 was > 100000 nM in experiment [1] and 780 nM in experiment [2].
The compound `Cc1nc(-c2ccccn2)nc(NC[C@H](NCCCN2CCNCC2)c2ccccc2)c1Cl` yielded an IC50 in experiment [1] of 108000 nM.
In experiment [1], `Cc1nc(-c2ccccn2)nc(NC[C@H](NCCCCN2CCNCC2)c2ccccc2)c1Cl` came in with an IC50 of 188000 nM.

These data come from ChEMBL document CHEMBL2390953, “Pyridinylpyrimidines selectively inhibit human methionine aminopeptidase-1” (Bioorg Med Chem, 2013).
